From patent publication EP0603240B1, “SAFENING HERBICIDAL PYRAZOLYLSULFONYLUREAS” (priority 1991, dated 1993)

Assays:
Format in all cases: in vivo
corn [1] = assay: Example 2, Procedure II: dichloroacetamide antidotes against Herbicide No. 1; conditions: Herb. No. 1 0.14 kg/ha + antidote 0.56 kg/ha
Method: (§1) Containers were filled and compacted with a fumigated silt loam top soil to a depth of about 1.3 cm from the top of the container. A first container was designated as an untreated control, a second container was designated as a herbicide control, and a third container was designated as a herbicide + antidote test container. Each of the containers was seeded with a crop species. A measured amount of herbicide dispersed or dissolved in acetone was applied to a measured quantity of soil. To this same quantity of soil treated with herbicide, there was added a measured amount of antidote dispersed or dissolved in acetone. The quantity of soil treated with the herbicide and antidote was thoroughly mixed to incorporate the herbicide and antidote in the soil uniformly. The seed bed in the third container of soil was covered with the soil treated with the herbicide and antidote and the container was leveled. For each test series, the seed beds of the first and second containers were likewise covered by soil layers. the cover layer of the first container was not treated with herbicide or antidote.
(§2) The containers were then placed on a bench in a greenhouse and sub-irrigated as required for the duration of the test. […] Plant response is measured in terms of percent injury. Antidote efficacy is indicated as the difference in plant injury by the herbicide(s) without the antidote and with the antidote.
(§3) This procedure is the same as Procedure I, but modified in the manner that after incorporation of the chemicals (herbicide and antidote) the containers with the covered seedbed were treated with an initial overhead irrigation equivalent to 0.6 cm rainfall, then subsequently sub-irrigated as required on greenhouse benches.
In this example, a plurality of dichloroacetamide antidotes were tested for their safening efficacy against Herbicide No. 1 in corn, using Procedure II. In this test the weed was velvetleaf; barnyardgrass was not present in this test.

[2] = test system: barnyardgrass (Echinochloa crusgalli); assay: Example 8, Procedure II: Herbicide No. 1 + butachlor (No. 9) with antidotes
In short: (§4)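 Herbicide No. 1 plus butachlor, with or without antidote, applied in acetone and mixed into a soil layer covering corn seed beds, with weeds barnyardgrass and velvetleaf. Greenhouse test with an initial 0.6 cm overhead irrigation, then sub-irrigation. Percent injury was scored, and antidote efficacy taken as the injury difference with and without antidote.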

[3] = test system: velvetleaf (Abutilon theophrasti); assay: as above
In short: as §4

corn [4] = assay: Example 19, Procedure II: Herbicide No. 1 + ERADICANE EXTRA with added antidotes
In short: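 Corn seeded in silt loam, covered with soil incorporating herbicide plus antidote (from acetone); EPTC given as ERADICANE EXTRA (with R-29148 and dietholate). Initial overhead irrigation equal to 0.6 cm rain, then greenhouse sub-irrigation. Percent injury scored; efficacy is injury without antidote minus injury with it.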

corn [5] = assay: Example 22: retest of Example 21 at reduced greenhouse temperatures; conditions: Table 22
Method: as §1, §2, §3
In this example, tests were conducted as in the preceding Examples 18-20, except here the co-herbicidal component was SUTAN® PLUS, a commercial product comprising as the active herbicidal ingredient the compound butylate (Herbicide No. 10) and an antidote […] (Antidote No. 1). Again, the antidotal compounds herein were Nos. 1, 2, 7, 13 and 15. Procedure II was used.
The experiments in this example were designed as a retest of those described in Example 21 in view of the uncharacteristically poor corn safety and weed control, believed to have resulted from unseasonably high temperatures in the greenhouse. Accordingly, temperatures were reduced for these tests.

[6] = test system: Giant foxtail (Setaria fabergi); assay: Example 23, Procedure II: Antidote Nos. 15 and 17-21 against Herbicide No. 1, 13 days after application
In short: (§5)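 Herbicide and antidote were applied in acetone, mixed into the silt loam used to cover the seeded beds, then given overhead irrigation equal to 0.6 cm rainfall and sub-irrigated in the greenhouse. Antidotes were applied at 2.24 or 0.56 kg/ha. Percent injury is the mean of duplicates, scored 13 days after application.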

corn [7] = assay: as above; conditions: 13 days after application
In short: as §5

[8] = test system: velvetleaf (Abutilon theophrasti); assay: as above
In short: as §5

[9] = Herbicide No.1 0.14 + No.9 2.24 kg/ha + antidote 2.24 kg/ha
[10] = Herbicide No.1 0.14 + No.9 2.24 kg/ha + antidote 8.96 kg/ha
[11] = Herbicide No.1 0.56 + No.9 2.24 kg/ha + antidote 2.24 kg/ha
[12] = Herbicide No.1 0.56 + No.9 2.24 kg/ha + antidote 8.96 kg/ha
[13] = Table 23A, Herb. No. 1 0.14 Kg/Ha + antidote 2.24 Kg/ha
[14] = Table 23A, Herb. No. 1 0.28 Kg/Ha + antidote 2.24 Kg/ha
[15] = Table 23A, Herb. No. 1 0.56 Kg/Ha + antidote 2.24 Kg/ha
[16] = Table 23A, Herb. No. 1 1.12 Kg/Ha + antidote 2.24 Kg/ha
[17] = Table 23B, Herb. No. 1 0.14 Kg/Ha + antidote 0.56 Kg/ha
[18] = Table 23B, Herb. No. 1 0.28 Kg/Ha + antidote 0.56 Kg/ha
[19] = Table 23B, Herb. No. 1 0.56 Kg/Ha + antidote 0.56 Kg/ha
[20] = Table 23B, Herb. No. 1 1.12 Kg/Ha + antidote 0.56 Kg/ha

With `CC1(C)OC(c2ccco2)CN1C(=O)C(Cl)Cl` (centres unmarked) [compound 15] the “% Injury Corn” value (corn [1]) was 5%, the “% Injury BYG” value [2, 9] was 99% and the “% Injury BYG” value [2, 10] was 98%. The “% Injury BYG” value [2, 11] was 95%, the “% Injury BYG” value [2, 12] was 97% and the “% Injury VL” value [3, 9] was 85%. For the same molecule, the “% Injury VL” value [3, 10] was 70%, the “% Injury VL” value [3, 11] was 80% and the “% Injury VL” value [3, 12] was 75%. For the same molecule, the “% Injury Corn” value (corn [4]; Herbicide No.1 0.56 kg/ha + ERADICANE EXTRA 8.96 kg/ha, antidote 2.24 kg/ha) was 20%, the “% Injury Corn” value (corn [4]; Herbicide No.1 0.56 kg/ha + ERADICANE EXTRA 8.96 kg/ha, antidote 8.96 kg/ha) was 30% and the “% Injury Corn” value (corn [4]; Herbicide No.1 1.12 kg/ha + ERADICANE EXTRA 8.96 kg/ha, antidote 2.24 kg/ha) was 25%. For the same molecule, the “% Injury Corn” value (corn [4]; Herbicide No.1 1.12 kg/ha + ERADICANE EXTRA 8.96 kg/ha, antidote 8.96 kg/ha) was 25%, the “% Injury Corn” value (corn [5]; Herbicide No.1 0.56 Kg/ha + SUTAN + 8.96 Kg/ha + antidote 2.24 Kg/ha) was 45% and the “% Injury Corn” value (corn [5]; Herbicide No.1 0.56 Kg/ha + SUTAN + 8.96 Kg/ha + antidote 8.96 Kg/ha) was 55%. The “% Injury Corn” value (corn [5]; Herbicide No.1 1.12 Kg/ha + SUTAN + 8.96 Kg/ha + antidote 2.24 Kg/ha) was 60%, the “% Injury Corn” value (corn [5]; Herbicide No.1 1.12 Kg/ha + SUTAN + 8.96 Kg/ha + antidote 8.96 Kg/ha) was 45% and the “% Inhibition GFT” value [6, 13] was 20%. For the same molecule, the “% Inhibition GFT” value [6, 14] was 30%, the “% Inhibition GFT” value [6, 15] was 65% and the “% Inhibition GFT” value [6, 16] was 75%. For the same molecule, the “% Inhibition GFT” value [6, 17] was 20%, the “% Inhibition GFT” value [6, 18] was 30% and the “% Inhibition GFT” value [6, 19] was 60%. The “% Inhibition GFT” value [6, 20] was 70%, the “% Inhibition Corn” value (corn [7]; [13]) was 5% and the “% Inhibition Corn” value (corn [7]; [14]) was 0%. The “% Inhibition Corn” value (corn [7]; [15]) was 5%, the “% Inhibition Corn” value (corn [7]; [16]) was 20% and the “% Inhibition Corn” value (corn [7]; [17]) was 0%. The “% Inhibition Corn” value (corn [7]; [18]) was 0%, the “% Inhibition Corn” value (corn [7]; [19]) was 5% and the “% Inhibition Corn” value (corn [7]; [20]) was 10%. For the same molecule, the “% Inhibition VL” value [8, 13] was 90%, the “% Inhibition VL” value [8, 14] was 90% and the “% Inhibition VL” value [8, 15] was 90%. The “% Inhibition VL” value [8, 16] was 98%, the “% Inhibition VL” value [8, 17] was 85% and the “% Inhibition VL” value [8, 18] was 90%. For the same molecule, the “% Inhibition VL” value [8, 19] was 95% and the “% Inhibition VL” value [8, 20] was 95%.
